Assay results: ChEMBL document CHEMBL1136563, “Pharmacophore-based discovery of substituted pyridines as novel dopamine transporter inhibitors” (Bioorg Med Chem Lett, 2003)

Assays:
[1] = biological target: Sodium-dependent dopamine transporter (Rattus norvegicus, UniProt P23977); assay: Inhibition of reuptake of DA into striatal nerve endings (synaptosomes); format: subcellular, Brain
[2] = biological target: T1, Sodium-dependent dopamine transporter (Homo sapiens, UniProt Q01959); assay: Inhibition of [3H]DA uptake evaluated at the dopamine transporter
[3] = biological target: T1, Sodium-dependent dopamine transporter; assay: Affinity to displace binding of [3H]WIN-35428 to dopamine transporter
[4] = biological target: Sodium-dependent noradrenaline transporter (Homo sapiens, UniProt P23975); assay: Inhibition of [3H]-NE uptake evaluated at the monoamine transporter (NET)
[5] = biological target: Sodium-dependent serotonin transporter (Homo sapiens, UniProt P31645); assay: Inhibition of [3H]-5-HT uptake evaluated at the Serotonin transporter

Row | Structure (SMILES) | Ki [1] | Ki [2] | Ki [3] | Ki [4] | Ki [5]
1 | Clc1ccccc1/C=C(/c1ccccc1)c1ccccn1 | > 1 µM |  |  |  | 
2 | c1ccc(Cc2ccnc(Cc3ccccc3)c2)cc1 | 2.3 µM |  |  |  | 
3 | c1ccc(-c2nnnn2-c2cnc3ccccc3c2)cc1 | > 1 µM |  |  |  | 
4 | CN=C=C(c1ccc(Cl)cc1)c1ccc(Cl)cc1 | > 1 µM |  |  |  | 
5 | c1ccc(C(c2ccccc2)c2cccnc2)cc1 |  | 0.86 µM | 0.78 µM | 7.32 µM | 12.6 µM
6 | c1ccc2cc(-c3nnnn3-c3cnc4ccccc4c3)ccc2c1 | > 1 µM |  |  |  | 
7 | c1cncc(-c2c3ccccc3cc3ccccc23)c1 |  | > 10 µM | > 10 µM | > 10 µM | > 10 µM
8 | Clc1cnc(-c2ccccc2)n1Cc1ccccc1 | > 1 µM |  |  |  | 
9 | c1ccc(C(c2ccccc2)c2ccncc2)cc1 | 0.2 µM | 0.255 µM | 0.079 µM | 3.46 µM | 1.16 µM
10 | c1ccc(CC(c2ccccc2)c2ccncc2)cc1 (configuration not stated) |  | 0.263 µM | 0.099 µM | 0.393 µM | 0.91 µM
11 | CN=C=C(c1ccccc1)c1ccccc1 | > 1 µM |  |  |  | 
12 | CN(C)CCC(C#N)(c1ccccc1)c1ccccc1 | > 1 µM |  |  |  | 
13 | c1ccc(C(c2ccccc2)c2ccccn2)cc1 |  |  | 0.742 µM | 5.53 µM | 35 µM
14 | c1ccc2c(-c3ccncc3)c3ccccc3cc2c1 |  | > 10 µM | > 10 µM | > 10 µM | > 10 µM
15 | c1ccc(Cc2ccncc2)cc1 |  | > 10 µM | > 10 µM | > 10 µM | > 10 µM
16 | N#Cc1c(Cl)nnc(-c2ccccc2)c1-c1ccccc1 | > 1 µM |  |  |  | 
